From US8247596B2 (Sumitomo Chemical Company, Limited, priority 2007, dated 2012) come the findings set out here.

Format in all cases: in vivo
One experiment concerns Musca domestica. Nature of the experiment: Test Example 4: filter paper/sucrose bait test on Musca domestica. The following applies: 24 h, read-out: pest death rate. The procedure:
A formulation of any one of the present compounds (1), (4), (5), (7), (11), (12), (13), (18t), (18c), (19), (20), (21), (22), (24), (25t), (25c), (26t), (26c), (27), (29), (30), (31), (32), (33), (34), (35), (40), (41), (43), (49), (50) and (55) obtained according to Formulation Example 36 was diluted with water so that the active ingredient concentration was 500 ppm to obtain a test solution.
A filter paper having a diameter of 5.5 cm was spread on the bottom of a polyethylene cup having a diameter of 5.5 cm and 0.7 ml of the test solution was added dropwise onto the filter paper. As a bait 30 mg of sucrose was uniformly placed on the filter paper. Into the polyethylene cup, 10 female imagoes of Musca domestica were released and the cup was sealed with a lid. After 24 hours, the number of surviving Musca domestica was examined and the death rate of the pest was calculated.

The subject of the next experiment is Culex pipiens pallens. In words: Test Example 6: larvae of Culex pipiens pallens in treated water. As to conditions: 24 h, read-out: pest death rate. The procedure:
A formulation of any one of the present compounds (7), (11), (12), (13), (17), (18t), (18c), (22), (24), (25t), (25c), (26t), (26c), (27), (29), (33), (34), (35), (36), (38), (40), (41), (43), (47), (49), (50) and (55) obtained according to Formulation Example 36 was diluted with water so that the active ingredient concentration was 500 ppm to obtain a test solution.
To 100 mL of ion-exchanged water, 0.7 ml of the test solution was added (active ingredient concentration: 3.5 ppm). Into the solution, 20 last-instar larvae of Culex pipiens pallens were released. One day after, the number of surviving Culex pipiens pallens was examined and the death rate of the pest was calculated.

In experiment [1] the test system is Haemaphysalis longicornis. Nature of the experiment: Test Example 7: treated filter paper pouch test on ticks. The following applies: Haemaphysalis longicornis, 48 h; filter paper treated with 100 mg/m^2; non-blood-sucking nymphal ticks, 10 ticks/group; two days after; read-out: pest death rate. The procedure:
Five milligrams of any one of the present compounds (4), (7), (18t), (22), (25t), (26t), (29), (30), (31), (32), (33), (34), (35), (40), (41), (42), (43), (44) and (55) was dissolved in 10 mL of acetone. One milliliter of the acetone solution was uniformly applied on one side of a filter paper (TOYO No. 2; 5×10 cm), so that the filter paper having a surface area of 50 cm^2 was treated with 100 mg/m^2 of the present compound. After drying, the filter paper was folded in two and its edges were clipped to make a pouch. Test ticks (non-blood-sucking nymphal ticks, Haemaphysalis longicornis, 10 ticks/group) were put into the pouch, and the pouch was sealed with clips. Two days after, the number of surviving ticks was examined and the death rate was calculated.

For the next experiment, the system named is Blattalla germanica. Nature of the experiment: Test Example 5: filter paper/sucrose bait test on Blattalla germanica. As to conditions: 144 h, read-out: pest death rate. The procedure:
A formulation of any one of the present compounds (4), (5), (7), (12), (13), (18t), (18c), (22), (25t), (25c), (26t), (26c), (29), (30), (31), (32), (33), (34), (40), (41), (43), (49) and (55) obtained according to Formulation Example 36 was diluted with water so that the active ingredient concentration was 500 ppm to obtain a test solution.
A filter paper having a diameter of 5.5 cm was spread on the bottom of a polyethylene cup having a diameter of 5.5 cm and 0.7 ml of the test solution was added dropwise onto the filter paper. As a bait 30 mg of sucrose was uniformly placed on the filter paper. Into the polyethylene cup, 2 male imagoes of Blattalla germanica were released and the cup was sealed with a lid. After 6 days, the number of surviving Blattalla germanica was examined and the death rate of the pest was calculated.

With `CON=C1CCC(C(C)(C#N)S(=O)(=O)CCC(F)(F)F)CC1` (stereo not shown) [present compound (40), 2-[4-(methoxyimino)cyclohexyl]-2-(3,3,3-trifluoropropylsulfonyl)propionitrile], the figures for the pest or weed control at 500 ppm with Musca domestica and in the experiment with Blattalla germanica were ≥ 90% and 100%, respectively. Besides, the pest or weed control at 3.5 ppm with Culex pipiens pallens was ≥ 95%. In experiment [1], the pest or weed control at 100 mg/m2 came to 90%.

On to `CON=C1CCC(C(C#N)S(=O)(=O)CCC(F)(F)C(F)(F)F)CC1` (stereo not shown) [present compound (55), 2-[4-(methoxyimino)cyclohexyl]-2-(3,3,4,4,4-pentafluorobutylsulfonyl)acetonitrile], for which the pest or weed control at 500 ppm is ≥ 90% in the experiment with Musca domestica and 100% with Blattalla germanica. The pest or weed control at 3.5 ppm in the experiment on Culex pipiens pallens was ≥ 95%. In addition, the pest or weed control at 100 mg/m2 in experiment [1] is 90%.

With `N#CC(C1CCC(=NO)CC1)S(=O)(=O)CCC(F)(F)F` (stereo not shown) [present compound (34), 2-[4-(hydroxyimino)cyclohexyl]-2-(3,3,3-trifluoropropylsulfonyl)acetonitrile], the results for the pest or weed control at 500 ppm with Musca domestica and with Blattalla germanica were ≥ 90% and 100%, respectively. The pest or weed control at 3.5 ppm in the experiment with Culex pipiens pallens is ≥ 95%. The pest or weed control at 100 mg/m2 in experiment [1] was determined as 90%.

For `N#CC(C1CCC(F)(F)CC1)S(=O)(=O)CCC(F)(F)F` (stereo not shown) [present compound (29), 2-(4,4-difluorocyclohexyl)-2-(3,3,3-trifluoropropylsulfonyl)acetonitrile], the pest or weed control at 500 ppm is ≥ 90% in the experiment on Musca domestica and 100% in the experiment with Blattalla germanica. For the same molecule, the pest or weed control at 3.5 ppm in the experiment on Culex pipiens pallens is ≥ 95%. In addition, the pest or weed control at 100 mg/m2 in experiment [1] turned out to be 90%.

Consider `C#CC1CCC(CS(=O)(=O)CCC(F)(F)F)CC1` (stereo not shown) [present compound (18t), 1-ethynyl-4-(3,3,3-trifluoropropylsulfonylmethyl)cyclohexane], for which the pest or weed control at 500 ppm was ≥ 90% in the experiment with Musca domestica and 100% in the experiment on Blattalla germanica. In the experiment with Culex pipiens pallens, the pest or weed control at 3.5 ppm was ≥ 95%. For the same molecule, the pest or weed control at 100 mg/m2 in experiment [1] was 90%.

In the case of `C#CC1(F)CCC(CS(=O)(=O)CCC(F)(F)F)CC1` (stereo not shown) [present compound (7)], the pest or weed control at 500 ppm was ≥ 90% in the experiment with Musca domestica and 100% in the experiment on Blattalla germanica. Also, the pest or weed control at 3.5 ppm in the experiment with Culex pipiens pallens was ≥ 95%. Also, the pest or weed control at 100 mg/m2 in experiment [1] is 90%.

`C#CC1=CCC(CS(=O)(=O)CCC(F)(F)F)CC1` (stereo not shown): the figures for the pest or weed control at 500 ppm with Musca domestica and in the experiment on Blattalla germanica were ≥ 90% and 100%, respectively. Further, the pest or weed control at 3.5 ppm with Culex pipiens pallens is ≥ 95%. Besides, in experiment [1], the pest or weed control at 100 mg/m2 turned out to be 90%.

Regarding `CCC(C#N)(C1CCC(=NOC)CC1)S(=O)(=O)CCC(F)(F)F` (stereo not shown) [present compound (41), 2-[4-(methoxyimino)cyclohexyl]-2-(3,3,3-trifluoropropylsulfonyl)butyronitrile], the pest or weed control at 500 ppm in the experiment with Musca domestica was ≥ 90%; in the experiment with Blattalla germanica, 100%. The pest or weed control at 3.5 ppm in the experiment with Culex pipiens pallens is ≥ 95%. Moreover, in experiment [1], the pest or weed control at 100 mg/m2 was found to be 90%.

Regarding `CON=C1CCC(C(C#N)S(=O)(=O)CCC(F)(F)F)CC1` (stereo not shown) [present compound (33), 2-[4-(methoxyimino)cyclohexyl]-2-(3,3,3-trifluoropropylsulfonyl)acetonitrile], the pest or weed control at 500 ppm was ≥ 90% in the experiment with Musca domestica and 100% with Blattalla germanica. Further, in the experiment with Culex pipiens pallens, the pest or weed control at 3.5 ppm is ≥ 95%. For the same molecule, in experiment [1], the pest or weed control at 100 mg/m2 was found to be 90%.

`C#CC1CCC(C[S+]([O-])CCC(F)(F)F)CC1` (stereo not shown) [present compound (26t), 1-ethynyl-4-(3,3,3-trifluoropropylsulfinylmethyl)cyclohexane]: the pest or weed control at 500 ppm in the experiment with Musca domestica is ≥ 90%; in the experiment on Blattalla germanica it was 100%. In addition, in the experiment with Culex pipiens pallens, the pest or weed control at 3.5 ppm is ≥ 95%. Also, the pest or weed control at 100 mg/m2 in experiment [1] is 90%.
